Data reported in patent publication US20170296682A1, “DERIVATIVES OF DIBENZOTHIOPHENE IMAGING OF alpha-7 NICOTINIC ACETYLCHOLINE RECEPTORS” (THE JOHNS HOPKINS UNIVERSITY, priority 2015, published 2017).
Where “and” joins values, the source holds several entries; their conditions need not be identical. Identical values can stand only once. Like-named read-outs stand apart in the source and are kept apart here.

How the values were obtained:
[1] = target: T1, α7-nAChR (Homo sapiens, UniProt P36544); conditions: read-out: α7-nAChR, Ki, cited from earlier work
T1 sequence (P36544 23-502): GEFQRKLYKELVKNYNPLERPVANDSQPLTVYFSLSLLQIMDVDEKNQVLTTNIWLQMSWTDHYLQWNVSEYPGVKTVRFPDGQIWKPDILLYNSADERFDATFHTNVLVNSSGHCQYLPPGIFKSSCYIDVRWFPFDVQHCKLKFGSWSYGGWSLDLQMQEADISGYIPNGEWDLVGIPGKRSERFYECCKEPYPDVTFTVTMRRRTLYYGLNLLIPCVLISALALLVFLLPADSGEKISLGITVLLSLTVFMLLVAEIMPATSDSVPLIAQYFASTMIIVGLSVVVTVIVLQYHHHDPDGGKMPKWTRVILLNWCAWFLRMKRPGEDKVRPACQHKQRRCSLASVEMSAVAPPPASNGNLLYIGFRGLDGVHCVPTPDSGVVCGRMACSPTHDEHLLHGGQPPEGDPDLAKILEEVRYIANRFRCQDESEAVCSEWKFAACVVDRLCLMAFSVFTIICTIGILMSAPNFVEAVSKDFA

[2] = target: T2, α7-nAChR (Mus musculus, UniProt P49582); conditions: in vivo; cited from earlier work
T2 sequence (P49582 23-502): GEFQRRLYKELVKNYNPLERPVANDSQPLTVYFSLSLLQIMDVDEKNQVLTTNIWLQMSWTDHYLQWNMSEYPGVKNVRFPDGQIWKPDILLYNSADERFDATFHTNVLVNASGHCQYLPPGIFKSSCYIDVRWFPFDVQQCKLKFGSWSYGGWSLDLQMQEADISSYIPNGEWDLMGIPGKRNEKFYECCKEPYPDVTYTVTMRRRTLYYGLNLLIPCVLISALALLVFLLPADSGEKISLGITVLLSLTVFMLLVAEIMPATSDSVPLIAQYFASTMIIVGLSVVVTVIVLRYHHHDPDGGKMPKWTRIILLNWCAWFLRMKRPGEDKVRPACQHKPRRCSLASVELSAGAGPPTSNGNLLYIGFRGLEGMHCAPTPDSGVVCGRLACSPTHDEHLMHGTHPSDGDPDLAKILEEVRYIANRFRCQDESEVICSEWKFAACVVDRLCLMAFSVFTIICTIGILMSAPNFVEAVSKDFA

[3] = target: T3, α7-nAChR (Rattus norvegicus, UniProt Q05941); assay: biochemical; format: binding
T3 sequence (Q05941 23-502): as the sequence (P49582 23-502) above, with T402A counted along it

[4] = target: T4, α3β4-nAChR (Rattus norvegicus, UniProt P04757+P12392); assay: Heteromeric nAChR binding assay, transfected HEK293 membranes, [3H]epibatidine
T4 construct: expressed in transfected cells
T4 sequence (P04757 26-499): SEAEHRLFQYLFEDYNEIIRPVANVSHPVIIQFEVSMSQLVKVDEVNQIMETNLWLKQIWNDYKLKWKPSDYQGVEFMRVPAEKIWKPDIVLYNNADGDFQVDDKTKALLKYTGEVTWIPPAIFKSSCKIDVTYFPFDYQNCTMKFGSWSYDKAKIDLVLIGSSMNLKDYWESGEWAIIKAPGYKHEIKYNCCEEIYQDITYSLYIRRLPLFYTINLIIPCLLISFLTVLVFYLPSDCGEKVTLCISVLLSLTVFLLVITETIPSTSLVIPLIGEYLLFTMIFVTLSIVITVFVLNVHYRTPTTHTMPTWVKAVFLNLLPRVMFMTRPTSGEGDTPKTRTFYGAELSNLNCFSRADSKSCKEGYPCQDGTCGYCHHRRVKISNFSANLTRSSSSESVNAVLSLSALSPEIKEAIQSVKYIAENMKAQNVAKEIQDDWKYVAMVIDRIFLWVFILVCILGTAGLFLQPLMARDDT
T4 sequence (P12392 21-495): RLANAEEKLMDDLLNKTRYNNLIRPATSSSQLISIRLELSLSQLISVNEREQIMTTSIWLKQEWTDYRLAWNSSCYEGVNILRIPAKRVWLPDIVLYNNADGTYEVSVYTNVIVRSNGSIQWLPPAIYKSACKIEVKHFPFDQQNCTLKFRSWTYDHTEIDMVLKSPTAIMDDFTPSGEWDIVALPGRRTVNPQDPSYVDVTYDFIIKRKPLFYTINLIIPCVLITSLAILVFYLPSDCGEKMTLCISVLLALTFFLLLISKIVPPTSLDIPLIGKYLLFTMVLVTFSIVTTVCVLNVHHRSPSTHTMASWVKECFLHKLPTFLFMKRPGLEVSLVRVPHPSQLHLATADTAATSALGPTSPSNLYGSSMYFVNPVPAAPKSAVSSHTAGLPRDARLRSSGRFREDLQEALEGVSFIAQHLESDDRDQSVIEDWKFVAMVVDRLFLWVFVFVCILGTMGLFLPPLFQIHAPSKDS

[5] = target: T5, α4β4-nAChR (Rattus norvegicus, UniProt P09483+P12392); assay: as above
T5 construct: expressed in transfected cells
T5 sequence (P09483 31-630): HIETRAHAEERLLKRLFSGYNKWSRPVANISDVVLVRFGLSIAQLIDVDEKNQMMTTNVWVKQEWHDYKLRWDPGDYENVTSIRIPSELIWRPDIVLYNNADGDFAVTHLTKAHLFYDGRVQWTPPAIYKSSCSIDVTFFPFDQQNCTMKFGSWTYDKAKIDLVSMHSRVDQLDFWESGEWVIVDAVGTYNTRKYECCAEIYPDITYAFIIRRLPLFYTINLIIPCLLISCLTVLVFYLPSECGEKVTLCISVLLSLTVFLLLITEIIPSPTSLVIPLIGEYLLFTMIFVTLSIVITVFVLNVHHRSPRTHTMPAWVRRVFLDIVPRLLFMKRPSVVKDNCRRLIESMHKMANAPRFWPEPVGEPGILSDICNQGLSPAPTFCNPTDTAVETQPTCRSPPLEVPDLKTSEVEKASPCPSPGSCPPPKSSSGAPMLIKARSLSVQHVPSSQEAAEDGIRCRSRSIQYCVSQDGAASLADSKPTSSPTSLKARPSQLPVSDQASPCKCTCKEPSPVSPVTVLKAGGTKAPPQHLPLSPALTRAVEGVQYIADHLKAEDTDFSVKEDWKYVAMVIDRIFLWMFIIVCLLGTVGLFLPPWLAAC
T5 sequence (P12392 21-495): as the sequence (P12392 21-495) above

[6] = target: T6, Human 5-HT3 (Homo sapiens, UniProt P46098); assay: 5-HT3(h) binding assay, recombinant HEK293 cells, [3H]GR65630
T6 sequence (P46098 24-478): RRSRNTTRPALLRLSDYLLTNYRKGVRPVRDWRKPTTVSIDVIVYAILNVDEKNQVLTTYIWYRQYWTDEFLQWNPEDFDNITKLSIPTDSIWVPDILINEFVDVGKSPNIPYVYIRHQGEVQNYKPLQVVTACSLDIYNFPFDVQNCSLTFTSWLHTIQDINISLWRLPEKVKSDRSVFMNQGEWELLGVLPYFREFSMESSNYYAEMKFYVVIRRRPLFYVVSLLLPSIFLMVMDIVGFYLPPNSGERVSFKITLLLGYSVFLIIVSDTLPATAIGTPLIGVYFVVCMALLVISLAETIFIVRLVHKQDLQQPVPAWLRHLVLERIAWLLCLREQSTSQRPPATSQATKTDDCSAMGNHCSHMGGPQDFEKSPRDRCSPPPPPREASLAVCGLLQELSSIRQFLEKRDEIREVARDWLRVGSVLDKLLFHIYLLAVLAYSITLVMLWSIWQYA

[7] = target: α3β2-nAChR (Rattus norvegicus, UniProt P04757+P12390); assay: Heteromeric nAChR binding assay, transfected HEK293 membranes, [3H]epibatidine
Sequence of α3β2-nAChR (P04757 26-499): as the sequence (P04757 26-499) above
Sequence of α3β2-nAChR (P12390 25-500): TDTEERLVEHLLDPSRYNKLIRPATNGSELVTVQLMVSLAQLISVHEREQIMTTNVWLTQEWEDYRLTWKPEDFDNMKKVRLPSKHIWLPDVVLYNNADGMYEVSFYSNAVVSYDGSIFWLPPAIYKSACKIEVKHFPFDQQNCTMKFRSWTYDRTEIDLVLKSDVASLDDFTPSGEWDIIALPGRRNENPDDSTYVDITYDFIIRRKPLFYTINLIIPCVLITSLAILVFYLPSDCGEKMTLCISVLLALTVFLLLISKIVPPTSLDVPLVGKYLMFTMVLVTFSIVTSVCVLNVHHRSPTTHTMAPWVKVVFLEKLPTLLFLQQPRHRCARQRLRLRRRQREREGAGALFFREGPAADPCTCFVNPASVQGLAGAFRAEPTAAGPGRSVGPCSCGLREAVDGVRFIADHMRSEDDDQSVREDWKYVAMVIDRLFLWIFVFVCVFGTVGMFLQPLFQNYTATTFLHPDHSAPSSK

[8] = target: α4β2-nAChR (Rattus norvegicus, UniProt P09483+P12390); assay: as above
Sequence of α4β2-nAChR (P09483 31-630): as the sequence (P09483 31-630) above
Sequence of α4β2-nAChR (P12390 25-500): as the sequence (P12390 25-500) above

[9] = target: T2, α7-nAChR; conditions: in vivo
[10] = target: T7, α2β4-nAChR (Rattus norvegicus, UniProt P12389+P12392); assay: Heteromeric nAChR binding assay, transfected HEK293 membranes, [3H]epibatidine
T7 construct: expressed in transfected cells
T7 sequence (P12389 28-511): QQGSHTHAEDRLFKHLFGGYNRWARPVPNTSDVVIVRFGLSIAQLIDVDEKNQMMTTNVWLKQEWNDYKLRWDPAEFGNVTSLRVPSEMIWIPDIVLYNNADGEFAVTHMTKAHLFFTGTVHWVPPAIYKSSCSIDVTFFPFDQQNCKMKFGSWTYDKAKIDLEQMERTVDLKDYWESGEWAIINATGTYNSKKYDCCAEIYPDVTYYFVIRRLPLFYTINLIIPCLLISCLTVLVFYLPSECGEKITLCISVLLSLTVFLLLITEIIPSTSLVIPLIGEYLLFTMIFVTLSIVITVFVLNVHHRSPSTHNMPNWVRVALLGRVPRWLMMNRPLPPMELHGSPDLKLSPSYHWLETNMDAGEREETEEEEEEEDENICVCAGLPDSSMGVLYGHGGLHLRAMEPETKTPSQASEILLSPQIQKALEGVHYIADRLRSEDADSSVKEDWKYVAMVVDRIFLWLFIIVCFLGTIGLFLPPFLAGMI
T7 sequence (P12392 21-495): as the sequence (P12392 21-495) above

[11] = target: α2β2-nAChR (Rattus norvegicus, UniProt P12389+P12390); assay: as above
Sequence of α2β2-nAChR (P12389 28-511): as the sequence (P12389 28-511) above
Sequence of α2β2-nAChR (P12390 25-500): as the sequence (P12390 25-500) above

[12] = target: T6, Human 5-HT3; conditions: read-out: KD of radiotracer, 5-HT3; cited from earlier work
[13] = target: T2, α7-nAChR; conditions: in vivo; remark: listed apart in the source
[14] = target: T2, α7-nAChR; conditions: drugs 2 mg/kg sc, 10 min before radiotracer, 90 min
[15] = system: a7-nAChR; conditions: baboon
[16] = target: T2, α7-nAChR; design: The brains were rapidly removed and dissected on ice; tissue Charles River Laboratories; host or cells: brain of live male CD-1 mice; species or system CD-1 mice; conditions: in vivo
[17] = target: T1, α7-nAChR; conditions: read-out: Ki α7-nAChR (literature); cited from earlier work
[18] = target: T2, α7-nAChR; assay: Blockade of [18F]ASEM in CD1 mice with mouse-equivalent doses of clinical α7-nAChR drugs; format: in vivo; design: The brains were rapidly removed and dissected on ice; tissue Charles River Laboratories; host or cells: brain of live male CD-1 mice
[19] = target: T3, α7-nAChR; conditions: read-out: KD of radiotracer, α7-nAChR; cited from earlier work
[20] = target: T2, α7-nAChR; design: The brains were rapidly removed and dissected on ice; tissue Charles River Laboratories; host or cells: brain of live male CD-1 mice; species or system CD-1 mice; conditions: in vivo; remark: listed apart in the source
[21] = stably transfected HEK293 cells, [3H]epibatidine (0.5 nM)
[22] = previously published values, varied assay conditions

In the case of `[11CH3]n1cccc1-c1nnc(N2CCN3CCC2CC3)o1`, the Ki [1] is listed as 2.2 nM.
In the case of `[18F]CCn1ccc2ccc(-c3nnc(N4CCN5CCC4CC5)o3)cc21`, the Ki [1] is given as 2.5 nM.
In the case of `[11CH3]c1ccc(OC(=O)N2CCN3CCC2CC3)cc1`, the “BPND in cortex, Mice” value [2] is listed as about 0.6.
For `O=[11C](Nc1ccc(Br)cc1)OC1CN2CCC1CC2` (centres unmarked), the “BPND in cortex, Mice” value [2] is listed as about 0.3.
For `[18F]c1ccccc1-c1cnc2c(c1)CC1(CN3CCC1CC3)O2` (centres unmarked), the Ki [1] is given as 0.2 nM and the “BPND in cortex, Mice” value [2] is given as 0.8.
Compound `O=S1(=O)c2ccc(F)cc2-c2ccc(N3CCN4CCC3CC4)cc21` [Compound 7c, 7-(1,4-Diazabicyclo[3.2.2]nonan-4-yl)-2-fluorodibenzo[b,d]-thiophene 5,5-Dioxide] has a Ki ([3]; Ki α7-nAChR) of 1.35 nM, a Ki ([3]; Ki α7-nAChR (text)) of 1.3 nM and a Ki ([3]; read-out: Ki α7-nAChR) of 1.32 nM. The Ki [4, 21] was 5000 nM, the Ki [5, 21] was 3000 nM and the “selectivity α7/5HT3” value [6] was 378. The Ki ([6]; Human 5-HT3 recombinant/HEK293 cells, [3H]GR65630 (0.35 nM)) was 505 nM, the Ki [7, 21] was 2000 nM and the “selectivity α7/α4β2” value [8] was 663. The Ki [8, 21] was 885 nM, the “behavioral / locomotor activity changes” value [9] was “Neither behavioral nor locomotor activity changes were observed” and the Ki [10, 21] was 8000 nM. For the same compound, the Ki [11, 21] was 1000 nM.
In the case of `O=S1(=O)c2ccccc2-c2c(N3CCN4CCC3CC4)ccc(F)c21` [Compound 7e, 1-(1,4-Diazabicyclo[3.2.2]nonan-4-yl)-4-fluorodibenzo[b,d]-thiophene 5,5-Dioxide], the Ki ([3]; read-out: Ki α7-nAChR) is reported as 17.8 nM and 20.3 nM, the Ki [4, 21] is reported as 261 nM and the Ki [5, 21] is reported as 251 nM. For the same compound, the Ki [7, 21] was 2000 nM, the “selectivity α7/α4β2” value [8] was 210 and the Ki [8, 21] was 4000 nM. It also gave a Ki [10, 21] of 562 nM.
`O=[N+]([O-])c1cccc2c1S(=O)(=O)c1cc(N3CCN4CCC3CC4)ccc1-2` [Compound 10, 3-(1,4-Diazabicyclo[3.2.2]nonan-4-yl)-6-nitrodibenzo[b,d]-thiophene 5,5-Dioxide] gave a Ki ([3]; Ki α7-nAChR) of 0.35 nM and a Ki ([3]; read-out: Ki α7-nAChR) of 0.34 nM.
For `[125I]c1occc1-c1cnc2c(c1)CC1(CN3CCC1CC3)O2` (centres unmarked), the Ki [1] is given as 0.26 nM and the “BPND in cortex, Mice” value [2] is given as 0.6.
For `Cc1[nH]cnc1CCC(=O)c1cn(C)c2ccccc12` [[^3H]GR65630], the Kd [12] is given as 0.5 nM.
In the case of `CN1CCCC1c1cccnc1` (centres unmarked) [nicotine], the “blockade of [18F]7a accumulation in mouse brain” value (shortened to “blockade of [18F]7a accumulation”) [13] is reported as “significant blockade in all regions except the nAChR-poor cerebellum”.
For `Cc1nccn1CC1CCc2c(c3ccccc3n2C)C1=O` (centres unmarked) [ondansetron], the “effect on accumulation of [18F]7a in mouse brain” value [14] was “absence of blockade”.
With `O=S1(=O)c2ccc(I)cc2-c2ccc(N3CCN4CCC3CC4)cc21` [Compound 15, 7-(1,4-Diazabicyclo[3.2.2]nonan-4-yl)-2-iododibenzo[b,d]-thiophene 5,5-Dioxide] the Ki ([3]; read-out: Ki α7-nAChR) was 6.46 nM and 8.77 nM, the Ki [4] was 9000 nM and the Ki [5] was 5000 nM. The Ki [7] was 1000 nM, the Ki [8] was 477 nM and the “selectivity α7/α4β2” value [8] was 63. It also gave a Ki [10] of 6000 nM and a Ki [11] of 784 nM.
For `[11CH3]N1CC2CN(c3ccc(-c4ccc5[nH]ccc5c4)nc3)CC21` (centres unmarked) [5-(5-(6-[(11)C]methyl-3,6-diazabicyclo[3.2.0]heptan-3-yl)pyridin-2-yl)-1H-indole], the “BPND in cortex, Mice” value [2] is listed as 1.9.
For `O=C(Oc1ccc(Br)cc1)N1CCN2CCC1CC2` [Compound 1, reference compound], the “Mean occupancy of a7-nAChRs” value ([15]; dose of 0.5 mg/kg iv, individual VND values) was 38%, the “Mean occupancy of a7-nAChRs” value ([15]; dose of 0.5 mg/kg iv, mean VND value of 2 doses) was 32.9% and the “Mean occupancy of a7-nAChRs” value ([15]; dose of 5 mg/kg iv, individual VND values) was 80.5%. For the same compound, the “Mean occupancy of a7-nAChRs” value ([15]; dose of 5 mg/kg iv, mean VND value of 2 doses) was 94.1%, the “blockade of [18F]7a accumulation” value [16] was “dose dependent blockade in all regions studied” and the “effect on accumulation of [18F]7a in mouse brain” value [14] was “reduced accumulation of radioactivity”. For the same compound, the Ki [17] was 22 nM.
For `O=S1(=O)c2ccccc2-c2ccc(N3CCN4CCC3CC4)cc21` [Compound 5, 3-(1,4-diazabicyclo[3.2.2]nonan-4-yl)dibenzo[b,d]thiophene 5,5-dioxide, reference compound], the Ki ([3]; read-out: Ki α7-nAChR (reference compounds)) is listed as 0.3 nM and 0.5 nM, the “blockade of [18F]7c accumulation in mouse brain” value [16] is listed as “dose dependent blockade” and the Ki [17] is listed as 0.023 nM.
With `O=[N+]([O-])c1ccc2c(c1)-c1ccc(N3CCN4CCC3CC4)cc1S2(=O)=O` [Compound 11, 7-(1,4-Diazabicyclo[3.2.2]nonan-4-yl)-2-nitrodibenzo[b,d]-thiophene 5,5-Dioxide] the Ki ([3]; read-out: Ki α7-nAChR) was 3.41 nM and 6.21 nM.
With `O=S1(=O)c2ccccc2-c2ccc(N3CCN4CCC3CC4)c(F)c21` [Compound 7d, 3-(1,4-Diazabicyclo[3.2.2]nonan-4-yl)-4-fluorodibenzo[b,d]-thiophene 5,5-Dioxide] the Ki ([3]; read-out: Ki α7-nAChR) was 1.83 nM and 2.45 nM, the Ki [4] was 3000 nM and the Ki [5] was 1000 nM. The Ki [7] was 678 nM, the Ki [8] was 141 nM and the “selectivity α7/α4β2” value [8] was 66. It also gave a Ki [10] of 838 nM and a Ki [11] of 292 nM.
For `[11CH3]N1CC2CN(c3ccc4c(c3)C(=O)C3C=CC=CC3O4)CC2C1` (centres unmarked), the Ki [1, 22] is given as 11 nM.
In the case of `O=C(Oc1ccc([76Br])cc1)N1CCN2CCC1CC2`, the Ki [1, 22] is listed as 24.9 nM.
With `COc1ccc(/C=C2\CCCN=C2c2cccnc2)c(OC)c1` [DMXB-A, Dimethoxybenzylidene anabaseine] the “blockade of [18F]ASEM binding” value ([18]; 3 mg/kg, cortex) was 40%, the “blockade of [18F]ASEM binding” value ([18]; 3 mg/kg, hippocampus) was 28% and the “blockade of [18F]ASEM binding” value ([18]; 10 mg/kg, hippocampus, cortex, subcolliculus) was 50-70%. For the same compound, the “blockade of [18F]ASEM binding” value ([18]; 25 mg/kg, hippocampus, cortex, superior and inferior colliculus) was 50-60% and the “blockade of [18F]ASEM binding” value ([18]; 0.1, 0.3, and 1 mg/kg) was “did not show significant blockade”.
For `O=c1cccc2n1C[C@@H]1CNC[C@H]2C1` [cytisine], the “blockade of [18F]7a accumulation” value [13] was “insignificant reduction of radioactivity accumulation in all regions studied”.
For [^125I]α-bungarotoxin, the Kd [19] is given as 0.7 nM.
For `O=S1(=O)c2cc(F)ccc2-c2ccc(N3CCN4CCC3CC4)cc21` [Compound 7b, 4-(7-Fluorodibenzo[b,d]thiophen-3-yl)-1,4-diazabicyclo-[3.2.2]nonane 5,5-Dioxide], the Ki ([3]; read-out: Ki α7-nAChR) was 1.02 nM and 1.37 nM.
For `O=S1(=O)c2ccc([18F])cc2-c2ccc(N3CCN4CCC3CC4)cc21` [[^18F]7c, 4-(8-[^18F]fluorodibenzo[b,d]thiophen-3-yl)-1,4-diazabicyclo[3.2.2]nonane 5,5-dioxide], the Ki ([3]; Ki α7-nAChR (text)) was 1.3 nM, the “Approximate BPND, Coll” value [20] was 2.0 ± 0.5 and the “Approximate BPND, Ctx” value [20] was 2.0 ± 0.3. For the same compound, the “Approximate BPND, Hipp” value [20] was 3.1 ± 0.7, the “ratios of tissues to cerebellum” value ([20]; iv) was 4.5 and the baseline-to-blockade ratio [9] was 5. It also gave a specific binding value [9] of 80%.
For `[11CH3]N1CC2CN(c3ccc(-c4ccccc4)nn3)CC2C1` (centres unmarked), the Ki [1] is listed as 10.8 nM and the “BPND in cortex, Mice” value [2] is listed as 0.2-0.5.
In the case of `[18F]c1ccc(-c2nnc(N3CCN4CCC3CC4)o2)cc1`, the “BPND in cortex, Mice” value [2] is listed as 0.4.
For `[11CH3]N1CC2CN(c3ccc(-c4ccc5[nH]ccc5c4)nn3)CC2C1` (centres unmarked), the “BPND in cortex, Mice” value [2] is listed as 0.5.
`O=S1(=O)c2cc(N3CCN4CCC3CC4)ccc2-c2cccc(I)c21` [Compound 14, 3-(1,4-Diazabicyclo[3.2.2]nonan-4-yl)-6-iododibenzo[b,d]-thiophene 5,5-Dioxide] showed a Ki ([3]; read-out: Ki α7-nAChR) of 0.93 nM.
